Where “and” joins values, the source holds several entries; their conditions need not be identical. Equal entries are not always repeated. Where two headings read alike, the source gives them in different places.
Tests used:
HBV = tested on: HBV; set-up: method as in PMID 7601429; conditions: read-out: cell culture EC50; cited from earlier work
[1] = molecular target: T1, LVDr + M250V HBV polymerase (Hepatitis B virus genotype D subtype ayw, UniProt P03156, L515M/M539V/M585V); assay: In vitro HBV polymerase assay (endogenous polymerase assay with nucleocapsids); format: biochemical; conditions: for IC50: In vitro polymerase
T1 construct: intracellular HBV nucleocapsids were isolated from HBV transfected HepG2 cells and used in endogenous polymerase assays; expressed in transfected cells; host or cells: HepG2 cells transfected with a mutated HBV expression plasmid
T1 sequence (P03156 whole entry L515M/M539V/M585V): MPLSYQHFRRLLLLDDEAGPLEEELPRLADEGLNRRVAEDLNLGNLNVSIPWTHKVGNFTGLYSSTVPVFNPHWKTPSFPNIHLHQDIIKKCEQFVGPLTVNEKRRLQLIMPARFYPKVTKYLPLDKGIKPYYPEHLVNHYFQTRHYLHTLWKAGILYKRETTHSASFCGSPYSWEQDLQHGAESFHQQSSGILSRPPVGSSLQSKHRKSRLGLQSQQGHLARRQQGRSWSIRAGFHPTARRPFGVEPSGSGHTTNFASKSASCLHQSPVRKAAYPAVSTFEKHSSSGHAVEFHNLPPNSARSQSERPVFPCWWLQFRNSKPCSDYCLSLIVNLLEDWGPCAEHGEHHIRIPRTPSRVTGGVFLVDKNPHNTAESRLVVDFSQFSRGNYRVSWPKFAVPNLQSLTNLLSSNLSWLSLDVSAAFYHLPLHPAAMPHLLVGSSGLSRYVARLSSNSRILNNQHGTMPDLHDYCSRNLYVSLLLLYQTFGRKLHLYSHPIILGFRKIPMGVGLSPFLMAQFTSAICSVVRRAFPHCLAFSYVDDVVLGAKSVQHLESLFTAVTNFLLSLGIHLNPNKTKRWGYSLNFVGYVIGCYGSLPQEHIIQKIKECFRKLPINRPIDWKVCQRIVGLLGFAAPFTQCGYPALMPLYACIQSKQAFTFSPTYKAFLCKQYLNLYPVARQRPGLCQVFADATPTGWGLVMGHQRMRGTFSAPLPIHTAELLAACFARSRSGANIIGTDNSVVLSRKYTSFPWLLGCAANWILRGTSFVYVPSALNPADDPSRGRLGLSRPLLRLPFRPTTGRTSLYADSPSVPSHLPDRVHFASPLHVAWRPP
From the text: (§1) To provide the data in Tables 1 & 2, intracellular HBV nucleocapsids were isolated from HBV transfected HepG2 cells and used in endogenous polymerase assays (EPA), exactly as previously described in detail. Essentially, clarified, detergent and nuclease-treated HBV-transfected cell lysates were centrifugally sedimented through a 25% wt/vol sucrose cushion. Sedimented nucleocapsids were used in polymerase reactions with [33P]-labeled dNTPs and TCA-precipitable radioactivity was used as an indication of the HBV polymerase activity, as described.
(§2) In order to increase the activity of the EPA reactions, we used nucleocapsids from cells treated with phosphonoformic acid (foscarnet, PFA; Sigma) during culture. […] PFA inhibits synthesis of all HBV DNA forms and both strands of HBV DNA, but not priming, and has a cell culture EC50 of approximately 5 mM for HBV [48].
(§3) The HBV polymerase dNTP Km values were determined from similar assays where the concentration of dNTP was serially diluted from 1000 nM to 0.3 nM. All other dNTPs were used at a fixed concentration equal to the highest test dNTP concentration with one-tenth of the TTP in the form of [α^33P] TTP (3000 Ci/mmol; PerkinElmer, Boston, MA). The apparent Km values were obtained from Lineweaver-Burke plots of the data generated by GraphPad PRISM™ software version 3.0 (San Diego, CA). The Ki values were calculated using the Cheng-Prusoff equation: Ki = IC50/(1+[S]/Km). The enzyme concentration within HBV nucleocapsid preparations was found by determining the level of covalently-linked HBV DNA using quantitative real-time PCR [9] and converting to genome equivalents [1 pg double stranded HBV DNA = 3×10^5 genome equivalents [34]]. The primers were positioned near the 5′ end of minus strand DNA in an attempt to measure all enzymatically active molecules.

Wildtype HBV polymerase = molecular target: T2, Wildtype HBV polymerase (Hepatitis B virus genotype D subtype ayw, UniProt P03156); assay: as above; format: biochemical
T2 construct: intracellular HBV nucleocapsids were isolated from HBV transfected HepG2 cells and used in endogenous polymerase assays; expressed in transfected cells; host or cells: HepG2 cells transfected with pCMV-HBV
T2 sequence (P03156 whole entry): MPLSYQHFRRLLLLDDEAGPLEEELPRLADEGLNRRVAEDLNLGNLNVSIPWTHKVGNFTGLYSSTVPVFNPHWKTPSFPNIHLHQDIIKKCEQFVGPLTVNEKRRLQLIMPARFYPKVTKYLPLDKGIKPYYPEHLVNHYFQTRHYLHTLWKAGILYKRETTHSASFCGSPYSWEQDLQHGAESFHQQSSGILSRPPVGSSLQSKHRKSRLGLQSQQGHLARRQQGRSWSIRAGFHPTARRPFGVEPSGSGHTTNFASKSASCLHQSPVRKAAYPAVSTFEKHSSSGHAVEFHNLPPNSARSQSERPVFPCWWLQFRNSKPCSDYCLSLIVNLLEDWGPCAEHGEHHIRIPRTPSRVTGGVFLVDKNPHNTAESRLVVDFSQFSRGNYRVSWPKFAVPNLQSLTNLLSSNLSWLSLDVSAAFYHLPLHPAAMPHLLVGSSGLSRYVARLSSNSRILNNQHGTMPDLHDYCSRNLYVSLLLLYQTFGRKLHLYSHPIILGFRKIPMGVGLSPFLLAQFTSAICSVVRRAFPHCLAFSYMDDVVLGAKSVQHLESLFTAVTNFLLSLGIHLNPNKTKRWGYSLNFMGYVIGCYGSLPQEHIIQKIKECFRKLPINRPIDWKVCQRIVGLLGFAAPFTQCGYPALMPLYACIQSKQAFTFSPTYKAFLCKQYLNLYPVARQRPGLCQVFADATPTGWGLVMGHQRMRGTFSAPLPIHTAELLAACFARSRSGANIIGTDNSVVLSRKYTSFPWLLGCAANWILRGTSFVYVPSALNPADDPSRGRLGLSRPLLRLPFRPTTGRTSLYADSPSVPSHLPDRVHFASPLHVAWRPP
From the text: as §1, §2, §3

[2] = molecular target: T3, LVDr L180M + M204V HBV polymerase (Hepatitis B virus genotype D subtype ayw, UniProt P03156, L515M/M539V); assay: as above; format: biochemical; conditions: for IC50: In vitro polymerase, LVDr L180M + M204V
T3 construct: intracellular HBV nucleocapsids were isolated from HBV transfected HepG2 cells and used in endogenous polymerase assays; expressed in transfected cells; host or cells: HepG2 cells transfected with a mutated HBV expression plasmid
T3 sequence (P03156 whole entry L515M/M539V): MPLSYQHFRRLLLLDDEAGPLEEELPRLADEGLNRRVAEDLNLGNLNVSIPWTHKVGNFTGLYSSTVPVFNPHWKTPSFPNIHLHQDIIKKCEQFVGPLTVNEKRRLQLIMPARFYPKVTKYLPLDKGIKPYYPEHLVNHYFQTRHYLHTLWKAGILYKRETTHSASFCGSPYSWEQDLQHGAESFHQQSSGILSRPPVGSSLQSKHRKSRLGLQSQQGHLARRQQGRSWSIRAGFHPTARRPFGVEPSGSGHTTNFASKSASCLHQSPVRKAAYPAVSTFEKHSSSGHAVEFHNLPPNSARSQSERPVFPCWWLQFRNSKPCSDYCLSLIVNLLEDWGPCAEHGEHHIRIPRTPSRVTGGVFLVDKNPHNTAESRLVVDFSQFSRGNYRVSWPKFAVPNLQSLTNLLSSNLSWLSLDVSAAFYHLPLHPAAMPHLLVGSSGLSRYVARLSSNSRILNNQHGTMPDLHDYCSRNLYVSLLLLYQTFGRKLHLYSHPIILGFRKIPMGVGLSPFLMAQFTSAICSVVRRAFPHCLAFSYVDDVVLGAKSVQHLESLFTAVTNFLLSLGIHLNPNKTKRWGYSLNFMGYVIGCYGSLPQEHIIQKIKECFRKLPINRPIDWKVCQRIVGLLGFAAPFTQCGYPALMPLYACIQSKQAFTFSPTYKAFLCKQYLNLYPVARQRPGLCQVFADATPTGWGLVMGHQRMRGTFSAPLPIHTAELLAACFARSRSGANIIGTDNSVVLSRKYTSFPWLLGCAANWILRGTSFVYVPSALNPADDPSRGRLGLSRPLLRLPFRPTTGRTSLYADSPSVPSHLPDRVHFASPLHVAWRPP
From the text: as §1, §2, §3

[3] = molecular target: T4, LVDr + T184G + S202I HBV polymerase (Hepatitis B virus genotype D subtype ayw, UniProt P03156, L515M/M539V/S537I/T519G); assay: as above; format: biochemical; conditions: for IC50: In vitro polymerase
T4 construct: intracellular HBV nucleocapsids were isolated from HBV transfected HepG2 cells and used in endogenous polymerase assays; expressed in transfected cells; host or cells: HepG2 cells transfected with an HBV expression plasmid
T4 sequence (P03156 whole entry L515M/T519G/S537I/M539V): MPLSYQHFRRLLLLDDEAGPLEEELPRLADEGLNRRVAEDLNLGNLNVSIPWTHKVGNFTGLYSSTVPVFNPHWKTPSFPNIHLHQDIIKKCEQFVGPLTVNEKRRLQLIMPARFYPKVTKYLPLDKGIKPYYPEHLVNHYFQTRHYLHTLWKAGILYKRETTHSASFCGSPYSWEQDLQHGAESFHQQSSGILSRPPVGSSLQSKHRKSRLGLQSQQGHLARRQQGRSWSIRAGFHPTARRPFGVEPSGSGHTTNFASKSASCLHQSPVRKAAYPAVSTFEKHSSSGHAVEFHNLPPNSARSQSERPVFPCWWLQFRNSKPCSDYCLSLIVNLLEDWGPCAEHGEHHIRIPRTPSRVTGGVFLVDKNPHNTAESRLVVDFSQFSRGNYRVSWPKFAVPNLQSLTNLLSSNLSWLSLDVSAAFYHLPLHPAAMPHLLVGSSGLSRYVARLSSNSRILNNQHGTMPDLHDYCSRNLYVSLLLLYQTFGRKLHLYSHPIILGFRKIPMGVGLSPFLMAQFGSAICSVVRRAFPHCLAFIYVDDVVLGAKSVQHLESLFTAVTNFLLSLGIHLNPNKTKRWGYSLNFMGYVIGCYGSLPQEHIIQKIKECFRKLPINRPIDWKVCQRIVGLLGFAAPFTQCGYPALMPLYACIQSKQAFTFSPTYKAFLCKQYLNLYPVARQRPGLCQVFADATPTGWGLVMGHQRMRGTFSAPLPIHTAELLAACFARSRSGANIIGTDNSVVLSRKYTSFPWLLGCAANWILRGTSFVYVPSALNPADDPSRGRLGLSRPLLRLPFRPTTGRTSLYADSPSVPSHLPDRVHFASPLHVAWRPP
From the text: as §1, §2, §3

[4] = molecular target: T5, LVDr + S202G HBV polymerase (Hepatitis B virus genotype D subtype ayw, UniProt P03156, L515M/M539V/S537G); assay: as above; format: biochemical; conditions: for IC50: In vitro polymerase
T5 construct: intracellular HBV nucleocapsids were isolated from HBV transfected HepG2 cells and used in endogenous polymerase assays; expressed in transfected cells; host or cells: HepG2 cells transfected with a mutated HBV expression plasmid
T5 sequence (P03156 whole entry L515M/S537G/M539V): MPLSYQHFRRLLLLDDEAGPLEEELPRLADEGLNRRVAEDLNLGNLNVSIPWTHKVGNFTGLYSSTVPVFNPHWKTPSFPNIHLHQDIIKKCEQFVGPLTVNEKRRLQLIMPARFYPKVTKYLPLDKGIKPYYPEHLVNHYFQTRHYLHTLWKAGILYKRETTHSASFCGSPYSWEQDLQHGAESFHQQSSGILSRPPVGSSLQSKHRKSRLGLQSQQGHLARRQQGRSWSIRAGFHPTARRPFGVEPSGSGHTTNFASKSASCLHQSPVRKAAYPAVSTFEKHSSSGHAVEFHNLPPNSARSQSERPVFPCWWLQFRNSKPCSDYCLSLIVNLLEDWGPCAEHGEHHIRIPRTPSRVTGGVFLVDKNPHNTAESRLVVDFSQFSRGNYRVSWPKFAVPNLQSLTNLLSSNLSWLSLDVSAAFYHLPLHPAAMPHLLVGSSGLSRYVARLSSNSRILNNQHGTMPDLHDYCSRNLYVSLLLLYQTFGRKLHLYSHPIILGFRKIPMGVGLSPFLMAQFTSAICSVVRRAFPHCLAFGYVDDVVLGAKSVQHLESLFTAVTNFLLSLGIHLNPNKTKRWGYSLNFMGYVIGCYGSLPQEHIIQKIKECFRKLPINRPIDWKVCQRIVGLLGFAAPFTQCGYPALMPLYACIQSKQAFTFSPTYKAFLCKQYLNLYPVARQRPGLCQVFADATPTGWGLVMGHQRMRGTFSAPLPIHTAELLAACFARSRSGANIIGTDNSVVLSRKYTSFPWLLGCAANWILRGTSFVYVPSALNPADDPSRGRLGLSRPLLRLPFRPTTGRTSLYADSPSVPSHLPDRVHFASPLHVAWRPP
From the text: as §1, §2, §3

[5] = molecular target: ETVr HBV polymerases (ETVr signature substitutions in a LVDr background); assay: In vitro HBV polymerase assay, ETVr enzymes as a group; format: biochemical, hepatitis B virus
From the text: as §1, §2, §3

[6] = molecular target: T6, LVDr + T184L HBV polymerase (Hepatitis B virus genotype D subtype ayw, UniProt P03156, L515M/M539V/T519L); assay: In vitro HBV polymerase assay (endogenous polymerase assay with nucleocapsids); format: biochemical
T6 construct: intracellular HBV nucleocapsids were isolated from HBV transfected HepG2 cells and used in endogenous polymerase assays; expressed in transfected cells; host or cells: HepG2 cells transfected with a mutated HBV expression plasmid
T6 sequence (P03156 whole entry L515M/T519L/M539V): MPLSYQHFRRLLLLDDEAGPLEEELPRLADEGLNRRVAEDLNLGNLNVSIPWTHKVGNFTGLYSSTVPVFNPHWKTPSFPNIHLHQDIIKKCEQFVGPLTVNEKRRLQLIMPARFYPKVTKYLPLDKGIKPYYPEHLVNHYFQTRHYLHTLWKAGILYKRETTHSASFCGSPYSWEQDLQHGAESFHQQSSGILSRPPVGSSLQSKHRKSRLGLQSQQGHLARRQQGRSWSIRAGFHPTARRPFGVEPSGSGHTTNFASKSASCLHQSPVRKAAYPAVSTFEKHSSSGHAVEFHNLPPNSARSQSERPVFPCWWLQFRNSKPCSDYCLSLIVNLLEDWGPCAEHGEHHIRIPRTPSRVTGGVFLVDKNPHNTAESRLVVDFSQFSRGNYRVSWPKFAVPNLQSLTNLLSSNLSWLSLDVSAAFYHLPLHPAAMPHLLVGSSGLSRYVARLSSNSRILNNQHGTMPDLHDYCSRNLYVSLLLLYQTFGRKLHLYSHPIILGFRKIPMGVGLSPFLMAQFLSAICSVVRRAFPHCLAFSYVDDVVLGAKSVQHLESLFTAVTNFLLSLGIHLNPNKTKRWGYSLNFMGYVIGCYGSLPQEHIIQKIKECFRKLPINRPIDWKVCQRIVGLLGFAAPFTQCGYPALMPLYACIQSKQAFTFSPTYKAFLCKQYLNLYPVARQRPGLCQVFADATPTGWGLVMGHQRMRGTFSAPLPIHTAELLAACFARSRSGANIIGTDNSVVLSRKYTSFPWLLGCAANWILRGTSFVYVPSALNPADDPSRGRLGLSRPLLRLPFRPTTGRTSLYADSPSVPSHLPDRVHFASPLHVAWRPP
From the text: as §1, §2, §3

Wildtype HBV = assay: HBV cell culture susceptibility (HBV-transfected HepG2 cells); format: cell-based; conditions: Hepatitis B virus, wildtype HBV in culture, read-out: LVD EC50
Experimental: (§4) HepG2 human hepatoma cells (American Type Culture Collection) were maintained as described. The laboratory clone of HBV was the genotype D ayw serotype clone kindly provided by Dr. Steven Goff in the plasmid pCMV-HBV [41]. Plasmids expressing HBV RT with resistance substitutions were prepared using QuikChange® site-directed mutagenesis (Stratagene, LaJolla, CA).
(§5) HepG2 cell culture susceptibility assays were performed in cells transfected with HBV expression plasmids and cultured in the presence of a titration of antiviral compounds, as described in detail elsewhere. The levels of replicated, released HBV virions was measured at day five through immunocapture of detergent released nucleocapsids with anti-HBV core Ab and quantification of encapsidated HBV DNA [5]. Data were plotted as percent inhibition and EC50 values calculated as the drug concentration where 50% inhibition of extracellular HBV occurred.

[7] = tested on: singly M250V substituted HBV; assay: as above; format: cell-based, hepatitis B virus
From the text: The M250V substituted HBV RT in the absence of LVDr changes was constructed and tested for susceptibility to LVD, an obligate chain terminator which should not be impacted by the mechanism that could potentially affect ETV chain termination.
as §4, §5

[8] = tested on: HBV clones with ETVr signature substitutions in a LVDr background; conditions: cited from earlier work
[9] = fold change from wildtype value, LVDr + M250V
[10] = fold change from wildtype value, Wildtype (WT)
[11] = fold change from wildtype value, LVDr + S202G
[12] = fold change from wildtype value, LVDr + T184L
[13] = fold change from wildtype value, LVDr M204V+L180M
[14] = fold change from wildtype value, LVDr + T184G + S202I

## O=C(O)P(=O)(O)O [PFA, phosphonoformic acid]
HBV
  EC50: ~5000 µM

## Nc1nc2c(ncn2[C@H]2CC[C@@H](COP(=O)(O)OP(=O)(O)OP(=O)(O)O)O2)c(=O)[nH]1 [ddGTP, 2′,3′-dideoxyguanosine-5′-triphosphate]
[1]; LVDr + M250V, read-out: ddGTP IC50, Average ± SD (Range)
  IC50: 0.154 ± 0.0514 µM
Wildtype HBV polymerase
  IC50: 0.0876 µM
[2]; read-out: ddGTP IC50, Average ± SD (Range)
  IC50: 0.138 ± 0.01 µM
[3]; LVDr + T184G + S202I, read-out: ddGTP IC50, Average ± SD (Range)
  IC50: 0.188 ± 0.0067 µM
[4]; LVDr + S202G, read-out: ddGTP IC50, Average ± SD (Range)
  IC50: 0.125 ± 0.0088 µM
[5]; ETVr isolates, in vitro polymerase
  ddGTP IC50 of ETVr isolates relative to background: approximately two-fold above background

## Nc1nc2c(ncn2[C@H]2C[C@H](O)[C@@H](COP(=O)(O)OP(=O)(O)OP(=O)(O)O)O2)c(=O)[nH]1 [dGTP]
[1]; apparent Km, LVDr + M250V polymerase, read-out: dGTP Km
  Km: 2.3 ± 0.5 nM
[1]; [9]
  dGTP Km (Fold WT): 2.2 fold
Wildtype HBV polymerase; apparent Km, Wildtype (WT) polymerase, read-out: dGTP Km
  Km: 5 ± 0.5 nM
Wildtype HBV polymerase; [10]
  dGTP Km (Fold WT): 1 fold
[2]; apparent Km, LVDr M204V+L180M polymerase, read-out: dGTP Km
  Km: 3.5 ± 0.4 nM
[3]; apparent Km, LVDr + T184G + S202I polymerase, read-out: dGTP Km
  Km: 0.7 ± 0.1 nM
[4]; apparent Km, LVDr + S202G polymerase, read-out: dGTP Km
  Km: 2.1 ± 0.1 nM
[4]; [11]
  dGTP Km (Fold WT): 2.4 fold
[6]; apparent Km, LVDr + T184L polymerase, read-out: dGTP Km
  Km: 1.9 ± 0.6 nM
[6]; [12]
  dGTP Km (Fold WT): 2.6 fold
[5]; ETVr enzymes except the quadruple-substituted RT
  change of dGTP Km by ETVr changes: 2.2- to 2.6 fold

## Nc1ccn([C@@H]2CS[C@H](CO)O2)c(=O)n1 [LVD, lamivudine]
Wildtype HBV
  EC50: 0.794 µM
[7]; Hepatitis B virus, HepG2, M250V HBV (no LVDr changes) in culture, read-out: LVD EC50
  EC50: 0.116 µM
[7]; {}
  hypersensitivity to LVD in culture: 7 fold

## C=C1[C@H](COP(=O)(O)OP(=O)(O)OP(=O)(O)O)[C@@H](O)C[C@@H]1n1cnc2c(=O)[nH]c(N)nc21 [ETV-TP, ETV-triphosphate]
[1]; ETV-TP Ki / dGTP Km ratio, LVDr + M250V
  Ki/Km: 52.7
[1]; LVDr + M250V, read-out: ETV-TP IC50, Average ± SD (Range)
  IC50: 0.229 ± 0.0495 µM
[1]; calculated with Cheng-Prusoff equation, LVDr + M250V polymerase, read-out: Ki (ETV-TP)
  Ki: 0.121 µM
[1]; [9]
  Ki (Fold WT): 303.0 fold
  Ki/Km (Fold WT): 658.8 fold
Wildtype HBV polymerase; In vitro polymerase, Wildtype, read-out: ETV-TP IC50, Average ± SD (Range)
  IC50: 0.0005 ± 0.0001 µM
Wildtype HBV polymerase; calculated with Cheng-Prusoff equation, Wildtype (WT) polymerase, read-out: Ki (ETV-TP)
  Ki: 0.0004 µM
Wildtype HBV polymerase; [10]
  Ki (Fold WT): 1 fold
  Ki/Km (Fold WT): 1 fold
[2]; ETV-TP Ki / dGTP Km ratio, LVDr M204V+L180M
  Ki/Km: 3.5
[2]; read-out: ETV-TP IC50, Average ± SD (Range)
  IC50: 0.0271 ± 0.0056 µM
[2]; calculated with Cheng-Prusoff equation, LVDr M204V+L180M polymerase, read-out: Ki (ETV-TP)
  Ki: 0.0123 µM
[2]; [13]
  Ki (Fold WT): 30 fold and 30.8 fold
  Ki/Km (Fold WT): 43.8 fold
[3]; ETV-TP Ki / dGTP Km ratio, LVDr + T184G + S202I
  Ki/Km: 221.6
[3]; LVDr + T184G + S202I, read-out: ETV-TP IC50, Average ± SD (Range)
  IC50: 0.636 ± 0.019 µM
[3]; calculated with Cheng-Prusoff equation, LVDr + T184G + S202I polymerase, read-out: Ki (ETV-TP)
  Ki: 0.155 µM
[3]; [14]
  Ki (Fold WT): 387.8 fold
  Ki/Km (Fold WT): 2770.0 fold
[4]; ETV-TP Ki / dGTP Km ratio, LVDr + S202G
  Ki/Km: 69.9
[4]; LVDr + S202G, read-out: ETV-TP IC50, Average ± SD (Range)
  IC50: 0.258 ± 0.0255 µM
[4]; calculated with Cheng-Prusoff equation, LVDr + S202G polymerase, read-out: Ki (ETV-TP)
  Ki: 0.147 µM
[4]; [11]
  Ki (Fold WT): 366.8 fold
  Ki/Km (Fold WT): 873.8 fold
[6]; ETV-TP Ki / dGTP Km ratio, LVDr + T184L
  Ki/Km: 118.2
[6]; In vitro polymerase, LVDr + T184L, read-out: ETV-TP IC50, Average ± SD (Range)
  IC50: 0.373 ± 0.143 µM
[6]; calculated with Cheng-Prusoff equation, LVDr + T184L polymerase, read-out: Ki (ETV-TP)
  Ki: 0.225 µM
[6]; [12]
  Ki (Fold WT): 561.3 fold
  Ki/Km (Fold WT): 1477.5 fold
[5]; ETVr enzymes
  Ki/dGTP Km ratio, change from the wildtype: more than 600 fold
[5]; ETVr signature substitutions in a LVDr background, in vitro polymerase
  level of ETVr in vitro: > 400 fold

## Nc1ncnc2c1ncn2CCOCP(=O)(O)O [adefovir]
[8]
  susceptibility of ETVr HBV in cell culture: does not show reduced susceptibility

## C[C@H](Cn1cnc2c(N)ncnc21)OCP(=O)(O)O [tenofovir]
[8]
  susceptibility of ETVr HBV in cell culture: does not show reduced susceptibility

Reference: PMC2820545, “Mechanistic Characterization and Molecular Modeling of Hepatitis B Virus Polymerase Resistance to Entecavir” (PLoS ONE, 2010)
